Patent publication US9198433B2, “Substituted benzene fungicides” (E I DU PONT DE NEMOURS AND COMPANY, priority 2007, dated 2015)
Marks after values point to notes of the source that are not given here.

Columns and labels:
Type in all cases: in vivo
Septoria tritici = assay: Test D: wheat leaf blotch, preventive spray on wheat seedlings, disease rating
From the text: The test compounds were first dissolved in acetone in an amount equal to 3% of the final volume and then suspended at the desired concentration (in ppm) in acetone and purified water (50/50 mix) containing 250 ppm of the surfactant Trem® 014 (polyhydric alcohol esters). The resulting test suspensions were then used in Tests A-L. Spraying a 200 ppm test suspension to the point of run-off on the test plants was the equivalent of an application rate of 500 g/ha. The test suspension was sprayed to the point of run-off on wheat seedlings. The following day the seedlings were inoculated with a spore suspension of Septoria tritici (the causal agent of wheat leaf blotch) and incubated in a saturated atmosphere at 24° C. for 48 h, and then moved to a growth chamber at 20° C. for 19 days, after which time disease ratings were made. […] A dash (-) indicates no test results. All results are for 200 ppm except where followed by an “*”, which indicates 40 ppm or “**”, which indicates 50 ppm.

Botrytis cinerea = assay: Test F: tomato Botrytis, preventive spray on tomato seedlings, disease rating
From the text: (§1) The test compounds were first dissolved in acetone in an amount equal to 3% of the final volume and then suspended at the desired concentration (in ppm) in acetone and purified water (50/50 mix) containing 250 ppm of the surfactant Trem® 014 (polyhydric alcohol esters). The resulting test suspensions were then used in Tests A-L. Spraying a 200 ppm test suspension to the point of run-off on the test plants was the equivalent of an application rate of 500 g/ha. The test suspension was sprayed to the point of run-off on tomato seedlings. […] A dash (-) indicates no test results. All results are for 200 ppm except where followed by an “*”, which indicates 40 ppm or “**”, which indicates 50 ppm.

[1] = tested on: Erysiphe graminis f. sp. tritici; assay: Test A: wheat powdery mildew, preventive spray on wheat seedlings, disease rating
From the text: (§2) The test compounds were first dissolved in acetone in an amount equal to 3% of the final volume and then suspended at the desired concentration (in ppm) in acetone and purified water (50/50 mix) containing 250 ppm of the surfactant Trem® 014 (polyhydric alcohol esters). The resulting test suspensions were then used in Tests A-L. Spraying a 200 ppm test suspension to the point of run-off on the test plants was the equivalent of an application rate of 500 g/ha. The test suspension was sprayed to the point of run-off on wheat seedlings. […] A dash (-) indicates no test results. All results are for 200 ppm except where followed by an “*”, which indicates 40 ppm or “**”, which indicates 50 ppm.

[2] = tested on: Puccinia recondita f. sp. tritici; assay: Test B: wheat leaf rust, preventive spray on wheat seedlings, disease rating
From the text: as §2

Alternaria solani = assay: Test H: tomato early blight, preventive spray on tomato seedlings, disease rating
From the text: as §1

Septoria nodorum = assay: Test C: wheat glume blotch, preventive spray on wheat seedlings, disease rating
From the text: as §2

| Compound | Percentage Disease Control, Test D (Septoria tritici; 40 ppm (*)) | Percentage Disease Control, Test F (Botrytis cinerea; 40 ppm (*)) | Percentage Disease Control, Test A ([1]; 40 ppm (*)) | Percentage Disease Control, Test B ([2]; 40 ppm (*)) | Percentage Disease Control, Test H (Alternaria solani; 40 ppm (*)) | Percentage Disease Control, Test C (Septoria nodorum; 40 ppm (*)) | Percentage Disease Control, Test F (Botrytis cinerea; 200 ppm) | Percentage Disease Control, Test D (Septoria tritici; 200 ppm) | Percentage Disease Control, Test A ([1]; 200 ppm) | Percentage Disease Control, Test B ([2]; 200 ppm) | Percentage Disease Control, Test H (Alternaria solani; 200 ppm) | Percentage Disease Control, Test C (Septoria nodorum; 200 ppm) |
| --- | --- | --- | --- | --- | --- | --- | --- | --- | --- | --- | --- | --- |
| COC(=O)NCc1cc(-c2ccn(-c3nccc(C(F)(F)F)n3)n2)ccc1Cl [Cmpd 87] | 99* % | 0* % | 82* % | 100* % | 9* % | 97* % |  |  |  |  |  |  |
| COC(=O)NCc1cc(-c2ccn(-c3ccc(Cl)c(C(F)(F)F)c3)n2)ccc1Cl [Cmpd 88] | 100* % | 0* % | 95* % | 97* % | 0* % | 100* % |  |  |  |  |  |  |
| COC(=O)NCc1cc(-c2ncn(-c3cccc(C(F)(F)F)c3)n2)ccc1Cl [Cmpd 89] | 100* % |  | 100* % | 100* % | 89* % | 100* % | 0% |  |  |  |  |  |
| COC(=O)NCc1cc(-c2ccn(-c3nc(SCc4ccccc4)ns3)n2)ccc1Cl [Cmpd 91] |  |  |  |  |  |  | 0% | 97% | 0% | 85% | 33% | 64% |
| COC(=O)NCc1cc(-c2ccn(-c3nc(OC)ns3)n2)ccc1Cl [Cmpd 92] |  |  |  | 97* % |  | 92* % | 0% | 72% | 82% |  | 15% |  |
| CCSc1nsc(-n2ccc(-c3ccc(Cl)c(CNC(=O)OC)c3)n2)n1 [Cmpd 93] | 96* % |  | 93* % | 98* % |  | 100* % | 0% |  |  |  | 15% |  |
| COC(=O)NCc1cc(-c2ccn(-c3nc(-c4ccc(C(F)(F)F)cc4)ns3)n2)ccc1Cl [Cmpd 94] |  |  |  |  |  |  | 0% | 40% | 0% | 17% | 0% | 0% |
| COC(=O)NCc1cc(-c2ccn(-c3nc(C4CC4)ns3)n2)ccc1Cl [Cmpd 95] | 100* % | 90* % | 100* % | 100* % |  | 100* % |  |  |  |  | 25% |  |
| COC(=O)NCc1cc(-c2ccn(-c3nc(C(C)(C)C)ns3)n2)ccc1Cl [Cmpd 96] | 100* % |  | 100* % | 100* % |  | 100* % | 0% |  |  |  | 59% |  |
| COC(=O)NCc1cc(-c2ncn(-c3ccc(Br)cc3)n2)ccc1Cl [Cmpd 97] | 100* % |  | 98* % | 100* % |  | 100* % | 0% |  |  |  | 85% |  |
| CCCCCc1cc(-c2ccc(Cl)c(CNC(=O)OC)c2)nn1C [Cmpd 98] |  |  |  | 98* % |  | 90* % | 0% | 98% | 91% |  | 0% |  |
| COC(=O)NCc1cc(-c2cc(-c3ccc(C(C)(C)C)cc3)[nH]n2)ccc1Cl [Cmpd 99] |  |  |  |  |  |  | 98% | 92% | 82% | 74% | 0% | 0% |
| COC(=O)NCc1cc(-c2cc(C(F)(F)F)[nH]n2)ccc1Cl [Cmpd 100] |  |  |  |  |  |  | 0% | 40% | 0% | 0% | 0% | 0% |
| COC(=O)NCc1cc(-c2cc(C(F)(F)F)n(CCC(C)(C)C)n2)ccc1Cl [Cmpd 101] | 95* % |  | 98* % | 99* % |  | 100* % | 0% |  |  |  | 0% |  |
| COC(=O)NCc1cc(-c2ccn(-c3nc(C(C)C)ns3)n2)ccc1Cl [Cmpd 104] | 100* % |  | 100* % | 100* % |  | 100* % | 0% |  |  |  | 40% |  |
| COC(=O)NCc1cc(-c2ccn(-c3nc(C)ns3)n2)ccc1Cl [Cmpd 105] | 99* % |  |  | 100* % | 90* % | 100* % | 0% |  | 51% |  |  |  |
| COC(=O)NCc1cc(-c2ccn(-c3ccc(OC)cc3)n2)ccc1Cl [Cmpd 106] | 100* % |  | 98* % | 100* % | 92* % | 100* % | 0% |  |  |  |  |  |
| COC(=O)NCc1cc(-c2ccn(-c3cccc(OC)c3)n2)ccc1Cl [Cmpd 107] | 99* % |  | 100* % | 100* % | 99* % | 100* % | 89% |  |  |  |  |  |
